From patent US8557851B2, “Combinations of flupirtine and sodium channel inhibiting substances for treating pains” (MEDA Pharma GmbH & Co. KG, priority 2003, dated 2013)

Columns and labels:
[1] = system: reserpine-induced skeletal muscle rigidity; test: Muscle-relaxing effect on reserpine-induced muscular rigidity in rats; type: in vivo, rat (male Sprague-Dawley); settings: Rattus norvegicus, ip, read-out: ED50, reduction of reserpine-induced skeletal muscle rigidity
Experimental: Male Sprague-Dawley rats weighing 200-220 g were kept in groups of two under standard conditions (temperature 22° C., humidity 40-60%) without any restriction in food or water. Illumination was provided from 6 a.m. to 6 p.m. The experiments were approved by the local animal health committee which was responsible for the protection and proper use of experimental animals.
The experimental approach has already been described in detail (Nickel et al. Arzn Forsch/Drug Res 1997; 47:1081-6). In brief, the rigidity of the skeletal muscle was measured by consecutively measuring the resistance of the flexor and extensor muscles which act in opposition when stretching and bending the foot in the joint. The pressure differences which were generated by the movement of the foot were recorded continuously. The signals were analyzed using a PC program which calculated the resistances of the flexor and extensor at the foot over periods of 10 min.
The active compounds were prepared freshly every day and were administered simultaneously i.p. at various doses 16 h after the reserpine injection (2 mg/kg, intraperitoneally).
The statistical analysis of the differences between the calculated and measured values was performed by means of a one-way. ANOVA. Asterisks (*) denote the significant level p<0.01.

[2] = system: skeletal muscle tone of conscious mice; test: Skeletal muscle tone in mice in the inclined screen test; type: in vivo, mouse (NMRI); settings: Mus musculus, ip, single substance, read-out: ED50, decrease of skeletal muscle tone (inclined screen test)
Experimental: NMRI mice weighing 22-24 g were kept in groups of four under standard conditions (temperature 22° C., humidity 40-60%) without any restriction in food and water. Illumination was provided from 6 a.m. to 6 p.m. All the experiments were approved by the local animal health committee which was responsible for the protection and proper use of experimental animals.
What is termed the “30 degrees inclined screen test” (Simiand et al., Arch Int Pharmacodyn Ther 1989; 297:272-85) was used as a pharmacological model which enables predictions to be made regarding muscle-relaxing properties. The inclined screen consists of a wooden frame containing a wire gauze screen which can be inclined at any arbitrary angle (in this present case: […]). The lower part of the screen is located 15 cm above the table. The animals are placed on the inclined screen and their ability to remain on the inclined screen is observed over a period of 30 s. The number of animals which fall from the screen is counted and the proportion it represents of the total number in each group is calculated. The active compounds were prepared freshly every day and were administered simultaneously i.p. at various doses, at 1 h before beginning the experiments, for analyzing the skeletal muscle tone.
The statistical analysis of the differences between the calculated and measured values were performed by means of a one-way ANOVA. […]

SMILES	ED50 [1] [mg/kg]	ED50 [2] [mg/kg]
CCOC(=O)Nc1ccc(NCc2ccc(F)cc2)nc1N [flupirtine]	6.45	10.8
Cc1ccc(C(=O)C(C)CN2CCCCC2)cc1 (stereo not shown) [tolperisone]	32.4	51
